Results as given in patent US20250243171A1, “QUINAZOLINE COMPOUNDS FOR TREATMENT OF DISEASE” (Arthrosi Therapeutics, Inc., priority 2021, published 2025).

Assays:
Assay in all cases: EC50 assay: Ba/F3 stable cell proliferation (CCK-8, 72 h)
Assay type in all cases: cell-based
[1] = molecular target: T1, Ba/F3 stable cells (Homo sapiens, UniProt P00533, DUP767-769, cells depend on it); details: Ba/F3-EGFR V769-D770insASV cells
T1 construct: EC50 Ba/F3-EGFR V769-D770insASV; other: Ba/F3-EGFR V769-D770insASV cells, 72 h, CCK-8
Summary of the method: (§1)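 Ba/F3 stable cells were seeded at 4,000 cells/90 μL/well in 96-well plates and held 2 h at 37° C. in 5% CO2, then given 10 μL of serially titrated compound (0.1% DMSO final). After 72 h at 37° C., CCK-8 reagent was added for 4 hours and absorbance read at 450 nm to derive EC50.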

[2] = molecular target: T2, Ba/F3 stable cells (Homo sapiens, UniProt P00533, INS763FQEA, cells depend on it); details: Ba/F3-EGFR A763-Y764insFQEA cells
T2 construct: EC50 Ba/F3-EGFR A763-Y764insFQEA; other: Ba/F3-EGFR A763-Y764insFQEA cells, 72 h, CCK-8
Summary of the method: as §1

[3] = molecular target: T3, Ba/F3 stable cells (Homo sapiens, UniProt P00533, DUP771-773, cells depend on it); details: Ba/F3-EGFR H773-V774insNPH cells
T3 construct: EC50 Ba/F3-EGFR H773-V774insNPH; other: Ba/F3-EGFR H773-V774insNPH cells, 72 h, CCK-8
Summary of the method: as §1

[4] = molecular target: T4, Ba/F3 stable cells (Homo sapiens, UniProt P04626, DUP772-775, cells depend on it); details: Ba/F3-HER2 A775-G776insYVMA cells
T4 construct: EC50 Ba/F3-HER2 A775-G776insYVMA; other: Ba/F3-HER2 A775-G776insYVMA cells, 72 h, CCK-8
Summary of the method: as §1

[5] = molecular target: T5, Ba/F3 stable cells (Homo sapiens, UniProt P00533, DUP768-770, cells depend on it); details: Ba/F3-EGFR D770-N771insSVD cells
T5 construct: EC50 Ba/F3-EGFR D770-N771insSVD; other: Ba/F3-EGFR D770-N771insSVD cells, 72 h, CCK-8
Summary of the method: as §1

[6] = molecular target: T6, Ba/F3 stable cells (Homo sapiens, UniProt P00533, T790M/L858R, cells depend on it); details: Ba/F3-EGFR L858R-T790M cells
T6 construct: EC50 Ba/F3-EGFR L858R-T790M; other: Ba/F3-EGFR L858R-T790M cells, 72 h, CCK-8
Summary of the method: as §1

T1 sequence (P00533 with tags, fused parts or gaps DUP767-769): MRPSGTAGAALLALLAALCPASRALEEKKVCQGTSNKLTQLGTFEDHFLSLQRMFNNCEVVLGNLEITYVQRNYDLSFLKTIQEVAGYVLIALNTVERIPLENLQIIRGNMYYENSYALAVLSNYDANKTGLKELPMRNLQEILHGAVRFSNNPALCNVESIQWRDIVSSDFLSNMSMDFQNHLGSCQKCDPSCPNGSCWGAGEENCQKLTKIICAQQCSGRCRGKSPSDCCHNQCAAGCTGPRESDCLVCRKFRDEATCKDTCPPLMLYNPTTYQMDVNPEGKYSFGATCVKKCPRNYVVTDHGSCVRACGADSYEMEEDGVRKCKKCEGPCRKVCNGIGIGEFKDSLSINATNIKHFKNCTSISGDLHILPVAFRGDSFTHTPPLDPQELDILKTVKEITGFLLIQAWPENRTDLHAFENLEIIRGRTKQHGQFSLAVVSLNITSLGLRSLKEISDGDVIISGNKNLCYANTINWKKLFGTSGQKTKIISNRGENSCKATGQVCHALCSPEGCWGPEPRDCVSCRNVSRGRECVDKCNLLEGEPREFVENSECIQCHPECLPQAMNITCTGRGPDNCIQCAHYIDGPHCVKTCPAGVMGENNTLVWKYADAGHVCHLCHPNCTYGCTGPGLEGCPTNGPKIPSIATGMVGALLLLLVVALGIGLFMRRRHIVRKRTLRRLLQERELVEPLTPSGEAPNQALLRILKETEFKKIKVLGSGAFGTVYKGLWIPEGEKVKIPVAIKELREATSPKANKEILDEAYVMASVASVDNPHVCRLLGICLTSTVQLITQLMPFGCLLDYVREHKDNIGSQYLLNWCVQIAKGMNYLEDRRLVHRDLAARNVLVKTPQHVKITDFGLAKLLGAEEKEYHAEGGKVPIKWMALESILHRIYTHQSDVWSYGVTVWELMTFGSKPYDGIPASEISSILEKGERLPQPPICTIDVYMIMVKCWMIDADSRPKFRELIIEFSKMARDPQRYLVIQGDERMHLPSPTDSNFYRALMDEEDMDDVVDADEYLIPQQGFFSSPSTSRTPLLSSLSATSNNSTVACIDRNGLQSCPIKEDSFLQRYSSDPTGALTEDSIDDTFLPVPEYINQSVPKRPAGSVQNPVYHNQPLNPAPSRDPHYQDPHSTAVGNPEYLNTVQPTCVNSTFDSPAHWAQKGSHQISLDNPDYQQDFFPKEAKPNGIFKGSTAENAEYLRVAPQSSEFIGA
T2 sequence (P00533 with tags, fused parts or gaps INS763FQEA): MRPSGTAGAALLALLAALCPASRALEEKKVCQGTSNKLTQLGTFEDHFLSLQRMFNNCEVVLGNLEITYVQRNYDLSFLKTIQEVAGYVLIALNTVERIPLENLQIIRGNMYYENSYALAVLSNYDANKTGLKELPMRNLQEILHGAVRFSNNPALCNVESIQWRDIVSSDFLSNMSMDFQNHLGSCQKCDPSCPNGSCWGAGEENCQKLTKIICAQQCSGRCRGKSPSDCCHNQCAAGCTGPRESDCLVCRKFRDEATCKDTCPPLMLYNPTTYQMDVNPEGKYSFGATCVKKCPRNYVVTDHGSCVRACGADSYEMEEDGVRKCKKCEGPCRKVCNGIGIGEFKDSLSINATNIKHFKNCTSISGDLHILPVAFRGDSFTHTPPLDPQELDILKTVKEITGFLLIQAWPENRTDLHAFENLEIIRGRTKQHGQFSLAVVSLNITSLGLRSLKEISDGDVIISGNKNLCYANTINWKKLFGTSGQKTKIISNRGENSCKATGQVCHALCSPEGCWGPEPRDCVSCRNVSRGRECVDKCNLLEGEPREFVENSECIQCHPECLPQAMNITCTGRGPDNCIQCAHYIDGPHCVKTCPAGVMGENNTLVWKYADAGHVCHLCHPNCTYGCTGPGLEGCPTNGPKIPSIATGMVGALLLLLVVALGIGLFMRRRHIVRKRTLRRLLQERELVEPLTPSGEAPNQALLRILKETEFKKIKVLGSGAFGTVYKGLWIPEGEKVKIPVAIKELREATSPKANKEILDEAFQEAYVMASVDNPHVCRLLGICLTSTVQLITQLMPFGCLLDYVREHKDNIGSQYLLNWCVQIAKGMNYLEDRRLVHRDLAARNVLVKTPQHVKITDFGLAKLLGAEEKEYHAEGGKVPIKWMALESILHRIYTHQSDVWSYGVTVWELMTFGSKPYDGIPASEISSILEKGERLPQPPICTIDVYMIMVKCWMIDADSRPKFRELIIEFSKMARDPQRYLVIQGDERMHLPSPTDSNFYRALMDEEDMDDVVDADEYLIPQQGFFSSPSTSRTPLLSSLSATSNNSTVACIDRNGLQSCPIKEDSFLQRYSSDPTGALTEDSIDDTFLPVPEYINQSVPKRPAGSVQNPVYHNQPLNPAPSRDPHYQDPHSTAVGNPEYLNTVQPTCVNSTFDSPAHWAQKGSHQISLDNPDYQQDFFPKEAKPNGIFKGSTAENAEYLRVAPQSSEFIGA
T3 sequence (P00533 with tags, fused parts or gaps DUP771-773): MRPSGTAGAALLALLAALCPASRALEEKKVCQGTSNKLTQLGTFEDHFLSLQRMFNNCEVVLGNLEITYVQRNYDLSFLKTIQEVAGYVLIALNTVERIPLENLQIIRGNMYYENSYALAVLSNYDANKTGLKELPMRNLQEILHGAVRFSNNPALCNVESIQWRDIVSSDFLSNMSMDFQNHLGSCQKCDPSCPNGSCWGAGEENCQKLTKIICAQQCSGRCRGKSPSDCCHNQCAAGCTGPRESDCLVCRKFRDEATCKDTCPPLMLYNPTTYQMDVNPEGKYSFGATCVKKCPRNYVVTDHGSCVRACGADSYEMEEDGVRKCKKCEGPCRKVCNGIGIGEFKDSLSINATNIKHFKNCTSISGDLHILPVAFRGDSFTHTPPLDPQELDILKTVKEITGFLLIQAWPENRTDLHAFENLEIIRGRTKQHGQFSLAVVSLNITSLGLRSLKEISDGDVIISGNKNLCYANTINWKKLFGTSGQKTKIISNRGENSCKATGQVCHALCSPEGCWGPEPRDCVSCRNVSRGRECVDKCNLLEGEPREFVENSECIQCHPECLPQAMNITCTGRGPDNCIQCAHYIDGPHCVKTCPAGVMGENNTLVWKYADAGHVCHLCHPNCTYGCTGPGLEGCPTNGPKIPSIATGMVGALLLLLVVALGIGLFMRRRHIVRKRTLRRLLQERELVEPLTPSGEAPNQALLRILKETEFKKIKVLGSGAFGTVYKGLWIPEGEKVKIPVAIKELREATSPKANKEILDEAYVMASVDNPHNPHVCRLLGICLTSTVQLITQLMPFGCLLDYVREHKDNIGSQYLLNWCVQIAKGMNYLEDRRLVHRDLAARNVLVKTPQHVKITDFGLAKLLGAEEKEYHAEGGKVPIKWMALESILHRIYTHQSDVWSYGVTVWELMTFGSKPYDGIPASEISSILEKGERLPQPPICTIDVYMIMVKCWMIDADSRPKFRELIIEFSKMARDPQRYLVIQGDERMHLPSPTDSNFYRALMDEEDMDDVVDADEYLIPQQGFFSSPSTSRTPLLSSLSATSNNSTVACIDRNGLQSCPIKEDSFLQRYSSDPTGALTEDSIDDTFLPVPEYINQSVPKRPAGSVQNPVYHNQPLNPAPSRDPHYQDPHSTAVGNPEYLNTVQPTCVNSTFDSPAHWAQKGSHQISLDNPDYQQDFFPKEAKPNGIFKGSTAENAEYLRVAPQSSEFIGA
T4 sequence (P04626 with tags, fused parts or gaps DUP772-775): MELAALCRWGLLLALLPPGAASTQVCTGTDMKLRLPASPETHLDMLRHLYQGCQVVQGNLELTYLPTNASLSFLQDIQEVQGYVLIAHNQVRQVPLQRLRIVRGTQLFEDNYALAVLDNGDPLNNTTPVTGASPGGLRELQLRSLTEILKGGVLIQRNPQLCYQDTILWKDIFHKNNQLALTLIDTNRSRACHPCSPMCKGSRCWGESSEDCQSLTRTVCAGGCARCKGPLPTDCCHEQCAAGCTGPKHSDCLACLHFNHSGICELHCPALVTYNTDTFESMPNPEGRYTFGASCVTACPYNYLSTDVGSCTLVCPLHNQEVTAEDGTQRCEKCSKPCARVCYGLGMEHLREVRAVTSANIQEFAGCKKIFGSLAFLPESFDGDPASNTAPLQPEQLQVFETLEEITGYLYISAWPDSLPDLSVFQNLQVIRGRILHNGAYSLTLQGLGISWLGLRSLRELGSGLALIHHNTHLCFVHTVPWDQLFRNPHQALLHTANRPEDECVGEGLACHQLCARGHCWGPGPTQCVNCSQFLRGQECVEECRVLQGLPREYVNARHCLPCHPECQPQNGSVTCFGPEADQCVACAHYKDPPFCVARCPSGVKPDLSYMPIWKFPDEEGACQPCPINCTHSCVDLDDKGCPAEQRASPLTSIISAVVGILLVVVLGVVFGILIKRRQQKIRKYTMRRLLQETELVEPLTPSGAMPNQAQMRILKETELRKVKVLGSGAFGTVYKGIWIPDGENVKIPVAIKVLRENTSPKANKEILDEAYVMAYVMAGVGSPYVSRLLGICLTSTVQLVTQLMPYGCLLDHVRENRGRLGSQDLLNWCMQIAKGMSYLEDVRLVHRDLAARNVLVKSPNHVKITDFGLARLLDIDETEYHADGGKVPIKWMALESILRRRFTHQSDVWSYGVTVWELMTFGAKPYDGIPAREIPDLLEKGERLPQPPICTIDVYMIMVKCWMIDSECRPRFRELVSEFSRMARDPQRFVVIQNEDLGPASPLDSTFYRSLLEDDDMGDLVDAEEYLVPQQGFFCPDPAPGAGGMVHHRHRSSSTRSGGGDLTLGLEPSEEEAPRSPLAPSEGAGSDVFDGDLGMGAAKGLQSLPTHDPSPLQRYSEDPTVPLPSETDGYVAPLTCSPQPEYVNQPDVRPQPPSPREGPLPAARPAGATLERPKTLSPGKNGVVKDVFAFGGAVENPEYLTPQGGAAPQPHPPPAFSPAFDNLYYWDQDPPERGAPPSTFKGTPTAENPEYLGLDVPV

SMILES | EC50 [1] | EC50 [2] | EC50 [3] | EC50 [4] | EC50 [5] | EC50 [6]
C=CC(=O)N[C@H]1C[C@@H](Oc2cc3c(Nc4ccc(Cl)c(Cl)c4F)ncnc3cc2OCC)C1 [Compound 105, N-((1s,3s)-3-((4-((3,4-dichloro-2-fluorophenyl)amino)-7-ethoxyquinazolin-6-yl)oxy)cyclobutyl)acrylamide] | ≤ 200 nM | ≤ 200 nM | ≤ 200 nM | ≤ 200 nM | ≤ 200 nM | ≤ 200 nM
C=CC(=O)N1CCC(Oc2cc3c(Nc4ccc5c(c4)CCN5S(C)(=O)=O)ncnc3cc2OC)CC1 [Compound 134, 1-(4-((7-methoxy-4-((1-(methylsulfonyl)indolin-5-yl)amino)quinazolin-6-yl)oxy)piperidin-1-yl)prop-2-en-1-one] | > 1000 nM | 200 to 1000 nM | > 1000 nM | ≤ 200 nM | > 1000 nM | > 1000 nM
C=CC(=O)N1CC(c2cc3c(Nc4ccc(Cl)c(Cl)c4F)ncnc3cc2O[C@@H]2CCOC2)C1 [Compound 29, (R)-1-(3-(4-((3,4-dichloro-2-fluorophenyl)amino)-7-((tetrahydrofuran-3-yl)oxy)quinazolin-6-yl)azetidin-1-yl)prop-2-en-1-one] | ≤ 200 nM | ≤ 200 nM | ≤ 200 nM | 200 to 1000 nM | 200 to 1000 nM | ≤ 200 nM
C=CC(=O)N1CCC(Oc2cc3c(NCc4ccccc4Cl)ncnc3cc2OC)CC1 [Compound 110, 1-(4-((4-((2-chlorobenzyl)amino)-7-methoxyquinazolin-6-yl)oxy)piperidin-1-yl)prop-2-en-1-one] | ≤ 200 nM | ≤ 200 nM | ≤ 200 nM | ≤ 200 nM | 200 to 1000 nM | 200 to 1000 nM
C=CC(=O)N1CCC(Oc2cc3c(NCc4cccc(Cl)c4)ncnc3cc2OC)CC1 [Compound 106, 1-(4-((4-((3-chlorobenzyl)amino)-7-methoxyquinazolin-6-yl)oxy)piperidin-1-yl)prop-2-en-1-one] | ≤ 200 nM | ≤ 200 nM | ≤ 200 nM | ≤ 200 nM | ≤ 200 nM | 200 to 1000 nM
C=CC(=O)N1CCCC(Oc2cc3c(Nc4ccc(Cl)c(Cl)c4F)ncnc3cc2OC)C1 (stereo not drawn) [Compound 132, 1-(3-((4-((3,4-dichloro-2-fluorophenyl)amino)-7-methoxyquinazolin-6-yl)oxy)piperidin-1-yl)prop-2-en-1-one] | 200 to 1000 nM | ≤ 200 nM | 200 to 1000 nM | 200 to 1000 nM | 200 to 1000 nM | > 1000 nM
C=CC(=O)N1CCC(Oc2cc3c(NCc4ccccc4F)ncnc3cc2OC)CC1 [Compound 112, 1-(4-((4-((2-fluorobenzyl)amino)-7-methoxyquinazolin-6-yl)oxy)piperidin-1-yl)prop-2-en-1-one] | 200 to 1000 nM | ≤ 200 nM | 200 to 1000 nM | ≤ 200 nM | > 1000 nM | 200 to 1000 nM
C=CC(=O)N1CCC(Oc2cc3c(Nc4ccc(C)c5ccccc45)ncnc3cc2OC)CC1 [Compound 167, 1-(4-((7-methoxy-4-((4-methylnaphthalen-1-yl)amino)quinazolin-6-yl)oxy)piperidin-1-yl)prop-2-en-1-one] | 200 to 1000 nM | ≤ 200 nM | 200 to 1000 nM | 200 to 1000 nM | > 1000 nM | ≤ 200 nM
C=CC(=O)N1CCC(Oc2cc3c(Nc4ccc(Cl)c5ccccc45)ncnc3cc2OC)CC1 [Compound 164, 1-(4-((4-((4-chloronaphthalen-1-yl)amino)-7-methoxyquinazolin-6-yl)oxy)piperidin-1-yl)prop-2-en-1-one] | ≤ 200 nM | ≤ 200 nM | 200 to 1000 nM | 200 to 1000 nM | 200 to 1000 nM | ≤ 200 nM
